# Test system: Plasmodium berghei
# Assay: Antimalarial activity against Plasmodium berghei
# Type: functional
smiles,measurement,value
CCCCCCCN(CCCCCCC)CC(O)c1cc2ccccc2c2cc(Br)ccc12.O=C(O)CCC(=O)O (stereo not given),log(1/C),3.52
CCCCN(CCCC)CC(O)c1cc(C(=O)c2cc(Cl)cc(Cl)c2)nc2c(C(F)(F)F)cc(Cl)cc12 (stereo not given),log(1/C),4.82
OC(CC1CCCCN1)c1cc2ccc(C(F)(F)F)cc2c2cc(Cl)ccc12 (stereo not given),log(1/C),4.25
CCCCN(CCCC)CC(O)/C(=C/c1ccc(C(F)(F)F)cc1)c1ccc(C(F)(F)F)cc1 (stereo not given),log(1/C),3.22
CCCN(CCC)CC(O)c1cc(C(F)(F)F)nc2c(C(F)(F)F)cccc12 (stereo not given),log(1/C),2.88
CC(C)N(C)CC(O)c1cc(-c2ccc(Cl)cc2)nc2c(Cl)cc(Cl)cc12 (stereo not given),log(1/C),3.72
CCCCCCCN(CCCCCCC)CCC(O)c1cc2ccccc2c2ccccc12 (stereo not given),log(1/C),3
CCCCCCCN(CCCCCCC)CC(O)c1c2cccc(Cl)c2cc2c(Cl)cccc12 (stereo not given),log(1/C),3.92
CCCCCCCN(CCCCCCC)CC(O)c1cccc2ccc3ccccc3c12 (stereo not given),log(1/C),2.19
CCCCN(CCCC)CC(O)c1cccc2cc3c(Cl)cccc3cc12 (stereo not given),log(1/C),2.1
CCCCN(CCCC)CC(O)c1cc2ccc(Br)cc2c2sccc12 (stereo not given),log(1/C),2.82
CCCCN(CCCC)CC(O)c1cccc2c1cc(Cl)c1ccccc12 (stereo not given),log(1/C),2.26
CCCCN(CCCC)CC(O)c1cc(-c2ccc(Cl)c(Cl)c2)nc(-c2ccc(Cl)c(Cl)c2)c1 (stereo not given),log(1/C),2.63
OC(CC1CCCCN1)c1cc2ccccc2c2cc(C(F)(F)F)ccc12 (stereo not given),log(1/C),3.37
CCCCN(CCCC)CCC(O)c1cc2ccc(C(F)(F)F)cc2c2cc(C(F)(F)F)ccc12 (stereo not given),log(1/C),4.03
OC(CC1CCCCN1)c1cc2cc(Cl)ccc2c2cc(C(F)(F)F)ccc12 (stereo not given),log(1/C),4.07
CS(=O)(=O)c1ccc2cc(C(O)CC3CCCCN3)c3ccc(C(F)(F)F)cc3c2c1 (stereo not given),log(1/C),3.32
CCCC(CCC)NCC(O)c1cc(-c2ccc(C(F)(F)F)cc2)nc(-c2ccc(C(F)(F)F)cc2)c1 (stereo not given),log(1/C),4.35
CCCCCCCCN(CCCCCCCC)CC(O)c1cc(-c2ccc(OC)c(OC)c2)nc2ccc(Cl)cc12 (stereo not given),log(1/C),3.11
CCCCCCN(CCCCCC)CC(O)c1cc(-c2ccc(OC)c(OC)c2)nc2cc(Cl)ccc12 (stereo not given),log(1/C),3.32
CCCCN(CCCC)CC(O)c1c(OC)c(-c2ccc(Cl)cc2)nc2c(C)cc(C)cc12 (stereo not given),log(1/C),3.26
COc1cc(C(F)(F)F)c2nc(C(F)(F)F)cc(C(O)CC3CCCCN3)c2c1 (stereo not given),log(1/C),3.98
OC(CC1CCCCN1)c1cc2cccc(C(F)(F)F)c2c2ccccc12 (stereo not given),log(1/C),3.62
CCCCN(CCCC)CC(O)c1cc(-c2ccc(Cl)c(Cl)c2)nc2c(Cl)cc(Cl)cc12 (stereo not given),log(1/C),4.21
CC(C)(C)NCCC(O)c1cc(C(F)(F)F)nc2c(C(F)(F)F)cccc12 (stereo not given),log(1/C),3.47
CCCCCCCCN(CCCCCCCC)CC(O)c1cc(-c2ccccc2)nc2cc(Cl)ccc12 (stereo not given),log(1/C),2.82
CCCCNCCC(O)c1c2ccccc2c(Cl)c2ccccc12 (stereo not given),log(1/C),2.49
CCCCNCC(O)c1cc(-c2cccc(C(F)(F)F)c2)nc(-c2cccc(C(F)(F)F)c2)c1 (stereo not given),log(1/C),3.94
CCCCN(CCCC)CC(O)c1c(OC)c2cc(Br)ccc2c2ccc(Br)cc12 (stereo not given),log(1/C),3.94
CCCCCCN(CCCCCC)CC(O)c1cc(-c2ccc(Cl)cc2)nc2cc(Cl)c(OC)cc12 (stereo not given),log(1/C),3.07
CCCCN(CCCC)CC(O)c1cc2cc(Br)cc(Br)c2c2ccccc12 (stereo not given),log(1/C),4.22
CCCCN(CCCC)CC(O)c1cc(C(C)(C)C)nc2ccc(C)cc12 (stereo not given),log(1/C),2.53
OC(CC1CCCCN1)c1cc2ccc(Br)cc2c2cc(Br)ccc12 (stereo not given),log(1/C),3.31
CCCCN(CCCC)CC(O)c1cc(-c2ccc(Cl)cc2)nc2cc(F)ccc12 (stereo not given),log(1/C),3.62
OC(CC1CCCCN1)c1cc2cc(C(F)(F)F)ccc2c2ccc(Cl)cc12 (stereo not given),log(1/C),4.19
CN1CCN(CC(O)c2cc(-c3ccccc3)nc3c(Cl)cc(Cl)cc23)CC1 (stereo not given),log(1/C),2.48
CCCCCCCN(CCCCCCC)CC(O)c1ccc(Cl)c2cc3cccc(Cl)c3cc12 (stereo not given),log(1/C),3.56
CCCCN(CCCC)CC(O)c1cc2cc(Cl)c(Cl)cc2c2cc(Cl)c(Cl)cc12 (stereo not given),log(1/C),4.18
OC(CNC1CCCC1)c1cc(-c2ccccc2)nc2c(Cl)cc(Cl)cc12 (stereo not given),log(1/C),2.54
OC(CC1CCCCN1)c1cc2ccc(Cl)cc2c2cc(Cl)c(Cl)cc12 (stereo not given),log(1/C),3.86
CCCCCCCN(CCCCCCC)CC(O)c1cc2ccccc2c2cc(Br)ccc12 (stereo not given),log(1/C),3.55
CCCCN(CCCC)CC(O)c1cc(-c2ccc(Cl)cc2)cc2cc(Cl)c(OC)cc12 (stereo not given),log(1/C),2.96
CCCCCCCN(CCCCCCC)CC(O)c1cc(Cl)cc2ccc(-c3ccc(Cl)cc3)nc12 (stereo not given),log(1/C),2.34
CCCCN(CCCC)CC(O)c1cc(Cl)cc2c1-c1ccc(Cl)cc1C2 (stereo not given),log(1/C),3.97
OC(CC1CCCCN1)c1cc2cc(C(F)(F)F)ccc2c2cc(C(F)(F)F)ccc12 (stereo not given),log(1/C),3.85
CCCCN(CCCC)CC(O)c1c(C)cnc2c1ccc1ccccc12 (stereo not given),log(1/C),2.15
CCCCN(CCCC)CC(O)c1cc(-c2ccc(Cl)cc2)nc2ccc(F)cc12 (stereo not given),log(1/C),3.11
CCCCCCCN(CCCCCCC)CC(O)c1cccc2c1cc(Cl)c1cc(Cl)c(Cl)cc12 (stereo not given),log(1/C),2.71
CCCCN(CCCC)CC(O)c1cc(C(C)(C)C)nc2c1ccc1ccccc12 (stereo not given),log(1/C),2.65
CCCCN(CCCC)CC(O)c1cc2cnccc2c2c(Cl)cc(Cl)cc12 (stereo not given),log(1/C),2.42
OC(CNC1CC1)c1cc(-c2ccc(Cl)c(Cl)c2)nc2c(Cl)cc(Cl)cc12 (stereo not given),log(1/C),3.6
Cc1cc(C)c2nc(-c3ccc(F)cc3)cc(C(O)CC3CCCCN3)c2c1 (stereo not given),log(1/C),3.61
OC(CN1CCCCC1)c1cc(-c2ccc(Cl)cc2)nc2c(Cl)cc(Cl)cc12 (stereo not given),log(1/C),3.49
OC(CC1CCCCN1)c1cc2ccc(C(F)(F)F)cc2c2ccccc12 (stereo not given),log(1/C),3.43
CCCCN(CCCC)CC(O)c1cc2ccc(C(F)(F)F)cc2c2cc(Cl)sc12 (stereo not given),log(1/C),3.84
CCCCN(CCCC)CC(O)c1cc(-c2ccc(Cl)cc2)nc2c(C(F)(F)F)cc(Cl)cc12 (stereo not given),log(1/C),4.61
CCCCN(CCCC)CC(O)c1cc(-c2ccc3c(c2)OCO3)nc2cc(Cl)ccc12 (stereo not given),log(1/C),3.09
CCCCN(CCCC)CC(O)c1cc(-c2ccc(Cl)cc2)nc2cc3c(cc12)OCO3 (stereo not given),log(1/C),2.99
CCCN(CCC)CC(O)c1cc2cc(C(F)(F)F)cc(C(F)(F)F)c2c2cc(Cl)c(Cl)cc12 (stereo not given),log(1/C),5.18
CCN(CC)CC(O)c1cc(-c2ccc(OC)cc2)nc2cc(Cl)c(OC)cc12 (stereo not given),log(1/C),2.92
OC(CC1CCCCN1)c1cc2ccc(C(F)(F)F)cc2c2ccc(Cl)cc12 (stereo not given),log(1/C),4.12
CCCCCCN(CCCCCC)CC(O)c1cccc2c1cc(Cl)c1ccccc12 (stereo not given),log(1/C),2.39
CCCCCCN(CCCCCC)CC(O)c1cc(-c2ccc(OC)cc2)nc2cc(Cl)c(OC)cc12 (stereo not given),log(1/C),3.38
CCCCN(CCCC)CC(O)c1cc(Cc2ccccc2)nc2c(Cl)cc(Cl)cc12 (stereo not given),log(1/C),2.6
CCCCCCN(CCCCCC)CC(O)c1cccc2ccc3cccc(Br)c3c12 (stereo not given),log(1/C),2.39
CCCCCCCN(CCCCCCC)CC(O)c1ccc2cc3ccccc3cc2c1 (stereo not given),log(1/C),2.62
CCCN(CCC)CCC(O)c1cc2ccc(C(F)(F)F)cc2c2cc(C(F)(F)F)ccc12 (stereo not given),log(1/C),4.23
CCCCCCN(CCCCCC)CC(O)c1cc2ccc(C(F)(F)F)cc2c2ccsc12 (stereo not given),log(1/C),2.49
CCCCCCCCN(CCCCCCCC)CC(O)c1cc2ccccc2c2ccccc12 (stereo not given),log(1/C),2.54
CN1CCCCC1CC(O)c1cc(-c2ccccc2)nc2ccc(Cl)cc12 (stereo not given),log(1/C),2.7
CCCCCCCN(CCCCCCC)CC(O)c1cccc2c1ccc1ccc(Cl)cc12 (stereo not given),log(1/C),2.54
OC(CC1CCCCN1)c1cc(-c2ccc(F)cc2)nc2cc(F)ccc12 (stereo not given),log(1/C),2.32
CCCCN(CCCC)CC(O)c1cc(Oc2cc(Cl)cc(Cl)c2)cc2c(Cl)cc(Cl)cc12 (stereo not given),log(1/C),2.9
OC(CC1CCCCN1)c1cc(-c2ccc(Cl)cc2)nc2c(Cl)cc(Cl)cc12 (stereo not given),log(1/C),3.97
CCNCC(O)c1cc(-c2ccc(C(F)(F)F)cc2)nc(-c2ccc(C(F)(F)F)cc2)c1 (stereo not given),log(1/C),3.72
OC(CC1CCCCN1)c1cc(C(F)(F)F)nc2c(F)cccc12 (stereo not given),log(1/C),2.36
OC(CC1CCCCN1)c1cc2ccc(C(F)(F)F)cc2c2cc(Br)ccc12 (stereo not given),log(1/C),3.86
CCCCN(CCCC)CC(O)c1cc(-c2ccccc2)nc(-c2ccc(Cl)cc2)c1 (stereo not given),log(1/C),2.91
OC(CC1CCCCN1)c1cc(Nc2ccc(Cl)cc2)nc2ccc(Cl)cc12 (stereo not given),log(1/C),2.72
CCCCN(CCCC)CCC(O)c1cc2ccccc2c2ccccc12 (stereo not given),log(1/C),2.45
CCCCN(CCCC)CC(O)c1cc2sccc2c2cc(Cl)sc12 (stereo not given),log(1/C),3.36
CCCCN(CCCC)CC(O)c1cc2cc(Br)ccc2c2cc(SC)ccc12 (stereo not given),log(1/C),3.04
CCCCCCCCN(CCCCCCCC)CC(O)c1ccc(Br)c2ccccc12 (stereo not given),log(1/C),2.24
CC(C)(C)NCC(O)c1cc2ccc(Br)cc2c2cc(Br)ccc12 (stereo not given),log(1/C),3.61
CCCCCCCN(CCCCCCC)CC(O)c1cc2ccccc2c2ccc(Cl)cc12 (stereo not given),log(1/C),2.97
CCCCN(CCCC)CC(O)c1cc(-c2ccc(Cl)cc2)cc2ccccc12 (stereo not given),log(1/C),3.87
CCCNCCC(O)c1cc(C(F)(F)F)nc2c(C(F)(F)F)cccc12 (stereo not given),log(1/C),2.82
CCCCN(CCCC)CC(O)c1cc2ccc(C(F)(F)F)cc2c2ccccc12 (stereo not given),log(1/C),2.8
CCCCCCN(CCCCCC)CC(O)c1cccc2c1ccc1ccccc12 (stereo not given),log(1/C),2.03
CCCCN(CCCC)CC(O)c1cc2ccc(C(C)(C)C)cc2c2cc(C(C)(C)C)ccc12 (stereo not given),log(1/C),3.19
OC(CNCc1ccccc1)c1cc(-c2ccc(Cl)c(Cl)c2)nc2c(Cl)cc(Cl)cc12 (stereo not given),log(1/C),3.66
OC(Cc1ccc2ccccc2n1)c1cc2ccc(C(F)(F)F)cc2c2cc(C(F)(F)F)ccc12 (stereo not given),log(1/C),4.11
OC(CNC1CCCCC1)c1cc2ccccc2c2cc(OC(F)(F)F)ccc12 (stereo not given),log(1/C),3.34
CCCCN(CCCC)CC(O)c1cc2cc(C(F)(F)F)ccc2c2ccccc12 (stereo not given),log(1/C),3.79
CCCCCN(CCCCC)CC(O)c1ccc(Br)c2ccccc12 (stereo not given),log(1/C),2.16
OC(CC1CCCCN1)c1cc2cc(Br)ccc2c2ccccc12 (stereo not given),log(1/C),3.25
OC(CN1CCOCC1)c1cc(-c2ccccc2)nc2c(Cl)cc(Cl)cc12 (stereo not given),log(1/C),2.23
CCCCN(CCCC)CC(O)c1cc(-c2ccc(C(F)(F)F)cc2)nc(C(F)(F)F)c1 (stereo not given),log(1/C),4.13
CCCCCCNCC(O)c1cc(-c2ccc(C(F)(F)F)cc2)nc(-c2ccc(C(F)(F)F)cc2)c1 (stereo not given),log(1/C),3.96
CCCCCCCN(CCCCCCC)CC(O)c1cccc2c1cc(Cl)c1ccc(Cl)cc12 (stereo not given),log(1/C),2.96

# Reference: ChEMBL document CHEMBL3227967, “Quantitative structure-activity relationships in 1-aryl-2-(alkylamino)ethanol antimalarials” (J Med Chem, 1979)
